We go through two compounds from PMC7146755, “Structure-Guided Design and In-Cell Target Profiling of a Cell-Active Target Engagement Probe for PARP Inhibitors” (ACS Chemical Biology, 2020).

Assay [1] concerns the target T1, GST-tagged PARP6 (recombinant) (Homo sapiens, UniProt Q2NL67).
T1 construct: recombinant GST fusion with HRV3C site in the linker, 98 kDa; intact PARP6 71 kDa after cleavage
Nature of the assay: competition of PARPYnD photoaffinity labeling, in-gel fluorescence and immunoblot. It counts as biochemical. As to conditions: recombinant GST-PARP6 spiked into MDA-MB-468 lysate; […] nm UV. Background: A western blot detects proteins with antibodies after separation by electrophoresis.

The target in assay [2] is T2, PARP2 (recombinant) (Homo sapiens, UniProt Q9UGN5).
T2 construct: recombinant
T2 sequence (Q9UGN5 whole entry): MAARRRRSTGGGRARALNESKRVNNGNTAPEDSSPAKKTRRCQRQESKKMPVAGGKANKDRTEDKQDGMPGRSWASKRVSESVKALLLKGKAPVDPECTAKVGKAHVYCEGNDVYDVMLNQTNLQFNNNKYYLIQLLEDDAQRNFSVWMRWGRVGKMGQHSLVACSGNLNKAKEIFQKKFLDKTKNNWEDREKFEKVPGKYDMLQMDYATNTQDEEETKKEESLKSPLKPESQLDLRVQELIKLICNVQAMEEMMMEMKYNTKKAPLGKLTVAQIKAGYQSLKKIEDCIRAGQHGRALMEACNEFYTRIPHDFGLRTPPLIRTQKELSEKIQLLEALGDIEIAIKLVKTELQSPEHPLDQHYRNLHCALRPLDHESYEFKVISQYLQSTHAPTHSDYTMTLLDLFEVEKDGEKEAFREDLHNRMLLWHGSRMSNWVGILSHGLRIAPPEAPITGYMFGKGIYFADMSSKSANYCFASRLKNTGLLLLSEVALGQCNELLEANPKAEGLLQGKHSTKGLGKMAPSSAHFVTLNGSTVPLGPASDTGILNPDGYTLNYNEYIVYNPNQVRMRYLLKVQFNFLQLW
Kind of assay: fluorescence polarization competition binding. A general note: In fluorescence polarisation assays a small probe gives low polarisation when free and higher when bound to something large.

For assay [3], the target named is T1, GST-tagged PARP6 (recombinant). Kind of assay: fluorescence polarization competition binding. The source says: fluorescence polarization competition binding on GST-tagged PARP6 (recombinant) | IC50 of PARPYnD for PARP6 as determined by the in vitro binding assay
Assay [4] deals with T3, PARP1 (recombinant) (Homo sapiens, UniProt P09874).
T3 construct: recombinant
T3 sequence (P09874 2-1014): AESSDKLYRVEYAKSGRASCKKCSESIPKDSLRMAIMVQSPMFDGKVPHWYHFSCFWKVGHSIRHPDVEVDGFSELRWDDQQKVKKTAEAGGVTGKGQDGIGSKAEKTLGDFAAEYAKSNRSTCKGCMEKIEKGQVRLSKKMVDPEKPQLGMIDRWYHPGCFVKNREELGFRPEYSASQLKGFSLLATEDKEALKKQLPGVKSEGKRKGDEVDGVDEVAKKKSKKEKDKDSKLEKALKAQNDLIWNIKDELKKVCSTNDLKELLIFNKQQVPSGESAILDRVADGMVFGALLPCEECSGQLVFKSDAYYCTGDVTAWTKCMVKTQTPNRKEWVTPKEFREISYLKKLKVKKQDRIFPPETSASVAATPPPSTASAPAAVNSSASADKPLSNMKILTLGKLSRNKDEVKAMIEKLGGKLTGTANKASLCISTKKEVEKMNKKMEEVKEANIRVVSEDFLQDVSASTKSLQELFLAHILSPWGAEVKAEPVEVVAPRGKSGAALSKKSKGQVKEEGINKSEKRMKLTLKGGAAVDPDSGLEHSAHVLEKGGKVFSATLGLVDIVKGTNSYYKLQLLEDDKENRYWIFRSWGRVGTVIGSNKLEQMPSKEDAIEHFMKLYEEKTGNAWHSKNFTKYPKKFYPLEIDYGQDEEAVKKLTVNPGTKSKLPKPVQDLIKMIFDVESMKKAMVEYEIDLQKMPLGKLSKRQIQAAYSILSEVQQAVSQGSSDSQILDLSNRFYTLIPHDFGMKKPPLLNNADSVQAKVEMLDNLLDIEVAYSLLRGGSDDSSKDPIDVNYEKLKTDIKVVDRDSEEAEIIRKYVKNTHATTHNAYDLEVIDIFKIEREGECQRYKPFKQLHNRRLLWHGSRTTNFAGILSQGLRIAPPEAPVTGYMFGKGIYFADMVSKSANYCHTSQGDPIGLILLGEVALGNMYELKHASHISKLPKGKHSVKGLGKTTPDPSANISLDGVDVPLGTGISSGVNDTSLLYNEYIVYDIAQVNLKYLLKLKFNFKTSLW
Kind of assay: fluorescence polarization competition binding.

T1 sequence (Q2NL67 whole entry, the tested form may be a part): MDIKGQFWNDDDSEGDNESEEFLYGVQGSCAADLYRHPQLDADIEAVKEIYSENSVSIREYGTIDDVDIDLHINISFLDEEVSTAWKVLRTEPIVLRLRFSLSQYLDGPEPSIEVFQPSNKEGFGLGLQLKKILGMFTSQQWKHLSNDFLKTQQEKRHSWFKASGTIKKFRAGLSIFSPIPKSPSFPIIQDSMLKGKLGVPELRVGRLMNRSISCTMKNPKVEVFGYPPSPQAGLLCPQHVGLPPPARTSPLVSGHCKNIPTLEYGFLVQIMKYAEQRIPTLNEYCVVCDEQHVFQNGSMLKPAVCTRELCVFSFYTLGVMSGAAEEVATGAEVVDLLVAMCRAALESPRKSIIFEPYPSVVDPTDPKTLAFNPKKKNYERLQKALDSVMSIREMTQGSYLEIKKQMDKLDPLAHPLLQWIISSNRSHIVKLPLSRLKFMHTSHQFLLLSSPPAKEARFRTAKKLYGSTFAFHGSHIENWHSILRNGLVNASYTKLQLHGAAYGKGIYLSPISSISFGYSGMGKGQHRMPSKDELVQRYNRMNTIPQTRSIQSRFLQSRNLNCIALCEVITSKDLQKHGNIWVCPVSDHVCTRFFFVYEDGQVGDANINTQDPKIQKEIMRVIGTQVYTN

Turning to `C[C@H]1Cn2c(nnc2C(C)(F)F)CN1C(=O)c1cccc(C(F)(F)c2n[nH]c(=O)c3ccccc23)c1` [AZ0108], in assay [1], the “competition of PARPYnD photoaffinity labeling, in-gel fluorescence and immunoblo” value is given as “which was depleted by PARP6 inhibitor AZ0108”.

Turning to `C#CCCC1(CCC(=O)Nc2cnc(N3CCN(C(=O)c4cccc(Cc5n[nH]c(=O)c6ccccc56)c4)CC3)c(C#N)c2)N=N1` [PARPYnD], the values for the IC50 in assay [2], in assay [3] and in assay [4] were 6 nM, 230 nM and 38 nM, respectively.

The IC50 is the midpoint of a concentration-inhibition curve.
